Test results as given in article PMC11189555, “Aryl amino acetamides prevent Plasmodium falciparum ring development via targeting the lipid-transfer protein PfSTART1” (Nature Communications, 2024).
Where two headings read alike, the source gives them in different places.

Test system: PopD F7 M-833 resistant clone (PfSTART1 N309K)
Assay: Growth inhibition assay (72 h, LDH activity)
Format: cell-based, Plasmodium falciparum
Method in brief: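 Synchronised ring-stage 3D7-derived clones (0.3-0.6% parasitemia, 2% haematocrit) grown 72 h in compound serial dilutions, some with 0, 0.25 or 2.5 mM glucosamine. Growth read as LDH activity after freeze-thaw (Malstat/NBT, A650), normalised to DMSO and uninfected RBC; EC50 from variable-slope log(inhibitor) fit.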

Cc1cc(Cl)c(S(=O)(=O)N2CCCC2)cc1OCC(=O)NC1CCCCC1 [M-833] was tested, and the “Normalised to DMSO” value (M-833 0.0390625 uM, Pop D-F7 replicate 1) was 102.746, the “Normalised to DMSO” value (M-833 0.0390625 uM, Pop D-F7 replicate 3) was 104.013 and the “Normalised to DMSO” value (M-833 0.078125 uM, Pop D-F7 replicate 1) was 103.501. For the same compound, the “Normalised to DMSO” value (M-833 0.078125 uM, Pop D-F7 replicate 3) was 102.629, the “Normalised to DMSO” value (M-833 0.15625 uM, Pop D-F7 replicate 1) was 104.635 and the “Normalised to DMSO” value (M-833 0.15625 uM, Pop D-F7 replicate 3) was 103.875. For the same compound, the “Normalised to DMSO” value (M-833 0.3125 uM, Pop D-F7 replicate 1) was 106.297, the “Normalised to DMSO” value (M-833 0.3125 uM, Pop D-F7 replicate 3) was 100.415 and the “Normalised to DMSO” value (M-833 0.625 uM, Pop D-F7 replicate 1) was 98.8413. For the same compound, the “Normalised to DMSO” value (M-833 0.625 uM, Pop D-F7 replicate 3) was 99.3081, the “Normalised to DMSO” value (M-833 1.25 uM, Pop D-F7 replicate 1) was 89.7985 and the “Normalised to DMSO” value (M-833 1.25 uM, Pop D-F7 replicate 3) was 89.8985. For the same compound, the “Normalised to DMSO” value (M-833 2.5 uM, Pop D-F7 replicate 1) was 74.9622, the “Normalised to DMSO” value (M-833 2.5 uM, Pop D-F7 replicate 3) was 59.8708 and the “Normalised to DMSO” value (M-833 5 uM, Pop D-F7 replicate 1) was 50.7053. The “Normalised to DMSO” value (M-833 5 uM, Pop D-F7 replicate 3) was 43.6808, the “Normalised to DMSO” value (M-833 10 uM, Pop D-F7 replicate 1) was 28.7406 and the “Normalised to DMSO” value (M-833 10 uM, Pop D-F7 replicate 3) was 39.9446. It also gave an inhibition at 0.0390625 µM (Plasmodium falciparum, M-833 0.0390625 uM, Pop D-F7 replicate 1, read-out: % Inhibition) of -2.75%, an inhibition at 0.0390625 µM (Plasmodium falciparum, M-833 0.0390625 uM, Pop D-F7 replicate 3, read-out: % Inhibition) of -4.01% and an inhibition at 0.078125 µM (Plasmodium falciparum, M-833 0.078125 uM, Pop D-F7 replicate 1, read-out: % Inhibition) of -3.5%. For the same compound, the inhibition at 0.078125 µM (Plasmodium falciparum, M-833 0.078125 uM, Pop D-F7 replicate 3, read-out: % Inhibition) was -2.63%, the inhibition at 0.15625 µM (Plasmodium falciparum, M-833 0.15625 uM, Pop D-F7 replicate 1, read-out: % Inhibition) was -4.63% and the inhibition at 0.15625 µM (Plasmodium falciparum, M-833 0.15625 uM, Pop D-F7 replicate 3, read-out: % Inhibition) was -3.87%. It also gave an inhibition at 0.3125 µM (Plasmodium falciparum, M-833 0.3125 uM, Pop D-F7 replicate 1, read-out: % Inhibition) of -6.3%, an inhibition at 0.3125 µM (Plasmodium falciparum, M-833 0.3125 uM, Pop D-F7 replicate 3, read-out: % Inhibition) of -0.415% and an inhibition at 0.625 µM (Plasmodium falciparum, M-833 0.625 uM, Pop D-F7 replicate 1, read-out: % Inhibition) of 1.16%. It also gave an inhibition at 0.625 µM (Plasmodium falciparum, M-833 0.625 uM, Pop D-F7 replicate 3, read-out: % Inhibition) of 0.692%, an inhibition at 1.25 µM (Plasmodium falciparum, M-833 1.25 uM, Pop D-F7 replicate 1, read-out: % Inhibition) of 10.2% and an inhibition at 1.25 µM (Plasmodium falciparum, M-833 1.25 uM, Pop D-F7 replicate 3, read-out: % Inhibition) of 10.1%. The inhibition at 2.5 µM (Plasmodium falciparum, M-833 2.5 uM, Pop D-F7 replicate 1, read-out: % Inhibition) was 25%, the inhibition at 2.5 µM (Plasmodium falciparum, M-833 2.5 uM, Pop D-F7 replicate 3, read-out: % Inhibition) was 40.1% and the inhibition at 5 µM (Plasmodium falciparum, M-833 5 uM, Pop D-F7 replicate 1, read-out: % Inhibition) was 49.3%. The inhibition at 5 µM (Plasmodium falciparum, M-833 5 uM, Pop D-F7 replicate 3, read-out: % Inhibition) was 56.3%, the inhibition at 10 µM (Plasmodium falciparum, M-833 10 uM, Pop D-F7 replicate 1, read-out: % Inhibition) was 71.3% and the inhibition at 10 µM (Plasmodium falciparum, M-833 10 uM, Pop D-F7 replicate 3, read-out: % Inhibition) was 60.1%. For the same compound, the inhibition at 0.0390625 µM (Plasmodium falciparum, Pop D-F7 replicate 1, M-833 0.0390625 uM) was -0.465%, the inhibition at 0.078125 µM (Plasmodium falciparum, Pop D-F7 replicate 1, M-833 0.078125 uM) was -0.401% and the inhibition at 0.15625 µM (Plasmodium falciparum, Pop D-F7 replicate 1, M-833 0.15625 uM) was 3.58%. It also gave an inhibition at 0.3125 µM (Plasmodium falciparum, Pop D-F7 replicate 1, M-833 0.3125 uM) of 2.21%, an inhibition at 0.625 µM (Plasmodium falciparum, Pop D-F7 replicate 1, M-833 0.625 uM) of 8.79% and an inhibition at 1.25 µM (Plasmodium falciparum, Pop D-F7 replicate 1, M-833 1.25 uM) of 10.1%. The inhibition at 2.5 µM (Plasmodium falciparum, Pop D-F7 replicate 1, M-833 2.5 uM) was 29%, the inhibition at 5 µM (Plasmodium falciparum, Pop D-F7 replicate 1, M-833 5 uM) was 45.3% and the inhibition at 10 µM (Plasmodium falciparum, Pop D-F7 replicate 1, M-833 10 uM) was 71.1%. The EC50 (Plasmodium falciparum, read-out: EC50 (95% confidence interval)) was 2.97 µM, the “Normalised to DMSO” value (Pop D-F7 replicate 1, M-833 0.0390625 uM) was 100.465 and the “Normalised to DMSO” value (Pop D-F7 replicate 1, M-833 0.078125 uM) was 100.401. For the same compound, the “Normalised to DMSO” value (Pop D-F7 replicate 1, M-833 0.15625 uM) was 96.4217, the “Normalised to DMSO” value (Pop D-F7 replicate 1, M-833 0.3125 uM) was 97.7856 and the “Normalised to DMSO” value (Pop D-F7 replicate 1, M-833 0.625 uM) was 91.2067. The “Normalised to DMSO” value (Pop D-F7 replicate 1, M-833 1.25 uM) was 89.8748, the “Normalised to DMSO” value (Pop D-F7 replicate 1, M-833 2.5 uM) was 70.9884 and the “Normalised to DMSO” value (Pop D-F7 replicate 1, M-833 5 uM) was 54.6534. For the same compound, the “Normalised to DMSO” value (Pop D-F7 replicate 1, M-833 10 uM) was 28.9313.
